Assay results published in EP1658093B1, “USE OF A MIXTURE CONTAINING OXYTOCIN AND TESTOSTERON OR ESTRADIOL FOR TREATING DISTURBANCES OF PSYCHOSOCIAL EXPERIENCES AND BEHAVIOUR” (Beier, Klaus M., priority 2003, dated 2007).

Tests used:
[1] = Double-blind study: psychophysiological reaction patterns (SMARD-Watch), dynamic cross-correlation analysis; format: in vivo; details: mean over all 4 Probanden; Oxytocin nasal 4 or 8 I.E.; sex hormone as dermal patch (Estradiol in men, Testosteron in women); low coefficient = balanced sympathetic/parasympathetic regulation
Protocol: (§1) Untersucht wurden 4 Probanden, zwei heterosexuelle Paare mit jeweils mehr als 20jähriger Partnerschaftsdauer. In einer Doppelblindstudie wurden Oxytocin gegen Placebo, die Kombinationen Oxytocin/Estradiol an Männern und Oxytocin/Testosteron an Frauen gegen Placebo und gegen den "Austausch von Intimität" untersucht.
(§2) Den Männern wurde Oxytocin nasal als Spraystoß (1 Spraystoß Syntocinon® = 4 I.E. Oxytocin) und Estradiol dermal als Membranpflaster(2 mg Estradiol mit der Freisetzungsrate von ca. […]; Estraderm TTS® 25) verabreicht.
(§3) Den Frauen wurde Oxytocin nasal als Spraystoß (1 Spraystoß Syntocinon® = 4 I.E. Oxytocin) und Testosteron dermal als Membranpflaster (12,2 mg Testosteron mit einer Freisetzungsrate von ca. 0,1 mg/h; Androderm® 2,5 mg) verabreicht.
(§4) Die Verabreichung von Oxytocin erfolgte nasal und doppelblind (Placebo und Verum) in zwei Dosierungen, 1 Sprühstoß = 4 I.E. Oxytocin und zwei Sprühstöße = 8 I.E. Oxytocin, jeweils fortlaufend im Abstand von einer Stunde. Oxytocin wurde sowohl vor als auch nach der Anlage des Membranpflasters verabreicht. Insgesamt wurden 4 nasale Interventionen vor und nach der zusätzlichen Sexualhormongabe durchgeführt, wobei das Verum 2 mal in unterschiedlichen Dosierungen gegeben wurde. Die ersten nasalen Interventionen erfolgten nach 2 Stunden Wirkzeit der Sexualhormone. […]

[2] = Double-blind study: subjective state descriptions by questionnaire; format: in vivo; details: 4 Probanden
Protocol: as §1, §2, §3, §4

For Oxytocin, the Kreuzkorrelationskoeffizient [1] was 0,51 and the “subjektive Zustandsbeschreibungen (Selbstwahrnehmung)” value [2] was “stärker in Richtung Entspannung tendierte”.
